In US11339203B2, “Antitumor peptide and use thereof” (TOAGOSEI CO., LTD., priority 2018, dated 2022):
Where two headings read alike, the source gives them in different places. Where no end group is shown, it is not given here.

What was measured:
[1] = tested on: human kidney cancer cell line (CAKI2); assay type: cell-based; conditions: human, 48 h
Experimental: The antitumor activity of each sample peptide synthesized in above-mentioned Test Example 1 was evaluated targeted in human-derived cultured tumor cells. More specifically, a human kidney cancer cell line (CAKI2) that is currently commercially available was used for the test tumor cells. CAKI2 cells were cultured and adjusted to cell count of about 5×10^3 cells per single well of 96-well plate. The amount of medium at this time was made to be 100 μL per well. Next, the 96-well plate was arranged in a CO2 incubator and incubated for about 1 day (21 hours to 24 hours) under conditions of 37° C. and 5% CO2. Subsequently, peptide-containing test media were respectively prepared for each concentration so that the concentration of each sample peptide targeted for evaluation was 12.5 μM and 25 μM followed by supplying to the wells in which the cells targeted for evaluation were cultured (namely, the wells following the above-mentioned incubation) so that the amount of media was 90 μL per well. The 96-well plate was then returned to CO2 incubator followed by incubating for 48 hours under conditions of 37° C. and 5% CO2. The number of wells (n) at each concentration in each peptide addition test group was set to 3. Thus, the values of the results indicated in the following table are the average values of the results respectively obtained for 3 test wells. Cell viability (%) was determined in the manner described below. Following completion of incubation for 48 hours as described above, the medium in each well was replaced with 100 μL of fresh medium not containing peptide followed by further adding a reagent for measuring cell proliferation in the form of “Cell Counting Kit-8” (Dojindo Laboratories) containing “water-soluble tetrazolium salt (WST-8)” as a coloring reagent at 10 μL per well. Subsequently, the 96-well plate was again returned to CO2 incubator and incubated for 1.5 hours to 2 hours under conditions of 37° C. and 5% CO2. Following completion of incubation, cell viability (%) was evaluated using a colorimetric method consisting of recovering the cell culture liquid containing the above-mentioned reagent together with measuring absorbance at wavelength of 450 nm based on reduction of tetrazolium salt (value corrected for absorbance at a wavelength of 650 nm: A450 to A650). More specifically, the cell viability (%) of each test cell line was calculated from the measured absorbance as a relative value based on cell viability of 100% for the measured value (measured absorbance) of the comparison test group that underwent incubation for 48 hours as described above in only medium not containing peptide. McCoy's 5A medium (Gibco) containing 2 mM L-glutamine, 3,000 mg/L of glucose, 100 units/mL of penicillin, 100 μg/mL of streptomycin and 10% fetal bovine serum (FBS).

[2] = tested on: tumor cells; assay: Antitumor activity of the TM2-TAT peptide (data not shown); assay type: cell-based; conditions: detailed data not shown

CC[C@H](C)[C@H](NC(=O)[C@H](CCCNC(=N)N)NC(=O)[C@H](CS)NC(=O)[C@H](Cc1ccc(O)cc1)NC(=O)[C@H](CC(C)C)NC(=O)[C@@H](NC(=O)[C@@H](NC(=O)[C@@H](NC(=O)[C@H](CO)NC(=O)[C@H](CC(C)C)NC(=O)[C@H](CC(C)C)NC(=O)[C@H](CC(C)C)NC(=O)[C@H](CC(C)C)NC(=O)[C@@H](NC(=O)[C@H](Cc1ccccc1)NC(=O)[C@@H](NC(=O)[C@@H](NC(=O)[C@@H](NC(=O)[C@H](CS)NC(=O)[C@H](Cc1ccccc1)NC(=O)[C@H](CC(C)C)NC(=O)[C@@H](NC(=O)[C@H](Cc1ccc(O)cc1)NC(=O)[C@H](Cc1c[nH]cn1)NC(=O)[C@H](CCCCN)NC(=O)[C@H](Cc1c[nH]cn1)NC(=O)[C@H](Cc1ccc(O)cc1)NC(=O)[C@@H](N)CC(C)C)[C@@H](C)CC)[C@@H](C)O)[C@@H](C)O)C(C)C)[C@@H](C)O)[C@@H](C)CC)C(C)C)[C@@H](C)CC)C(=O)N[C@@H](CCCCN)C(=O)N[C@@H](CCCCN)C(=O)N[C@@H](CCCNC(=N)N)C(=O)N[C@H](C(=O)N[C@@H](CC(C)C)C(=O)N[C@@H](CCCNC(=N)N)C(=O)N[C@@H](CCCCN)C(=O)N[C@@H](CC(N)=O)C(=O)N[C@@H](CC(=O)O)C(=O)N[C@@H](CCCNC(=N)N)C(=O)N[C@@H](CCCCN)C(=O)N[C@@H](CCCCN)C(=O)N[C@@H](CCCNC(=N)N)C(N)=O)[C@@H](C)O [Sample 5]
Cell Viability (%) ([1]; 12.5 μM): 73.3%
Cell Viability (%) ([1]; 25 μM): 77.6%

FLLISACWVISLILGGLPIMGWKKRTLRKNDRKKR-NH2 [Sample 4]
Cell Viability (%) ([1]; 12.5 μM): 70.6%
Cell Viability (%) ([1]; 25 μM): 85.6%

LFRAEYFLVLAVLNSGTNPIIKKRTLRKNDRKKR-NH2 [Sample 7]
Cell Viability (%) ([1]; 12.5 μM): 98.9%
Cell Viability (%) ([1]; 25 μM): 66.3%

SEQ ID NO: 33: synthetic peptide binding SEQ ID NO: 23 (TAT sequence of HIV) to the C-terminal side of SEQ ID NO: 2 (S1PR1 second TM region) (FIGNLALSDLLAGVAYTANLLLRKKRRQRRR)
antitumor activity [2]: demonstrated antitumor activity

VIIVLSVFIACWAPLFILLLLKKRTLRKNDRKKR-NH2 [Sample 6]
Cell Viability (%) ([1]; 12.5 μM): 69.3%
Cell Viability (%) ([1]; 25 μM): 59.7%

WFLREGSMFVALSASVFSLLAIKKRTLRKNDRKKR-NH2 [Sample 3]
Cell Viability (%) ([1]; 12.5 μM): 68%
Cell Viability (%) ([1]; 25 μM): 45.8%
